{"source": "paper PMC8939909", "about": "(Journal of medicinal chemistry, 2021)", "key": {"Mouse pharmacokinetics": {"assay": "Mouse pharmacokinetics", "conditions": "in vivo, iv, 2 mg/kg"}, "human LMPTP-A [1]": {"target": "T1, human LMPTP-A (Homo sapiens, UniProt P24666)", "T1 sequence (P24666 1-158)": "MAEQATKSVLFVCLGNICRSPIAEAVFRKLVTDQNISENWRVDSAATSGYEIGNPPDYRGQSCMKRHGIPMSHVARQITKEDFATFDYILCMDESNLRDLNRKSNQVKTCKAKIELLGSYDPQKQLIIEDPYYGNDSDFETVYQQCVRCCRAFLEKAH"}, "human LMPTP-A [2]": {"target": "T1, human LMPTP-A", "assay": "LMPTP biochemical inhibition assay", "conditions": "for LMPTP potency, in words (Table 3 series): substitution of the benzyl substituent off the 3-position"}, "HepG2 hepatocytes": {"test_system": "HepG2 hepatocytes", "assay": "Insulin-stimulated AKT Thr308 phosphorylation in HepG2 hepatocytes", "assay_type": "cell-based, human", "conditions": "500 nM overnight, 10 nM insulin 5 min"}, "diabetic DIO mice": {"test_system": "diabetic DIO mice", "assay": "DIO diabetes model", "assay_type": "in vivo, mouse", "conditions": "2 weeks"}, "VHR": {"test_system": "VHR", "conditions": "HTS workflow; cited from earlier work"}, "LYP": {"test_system": "LYP", "conditions": "HTS workflow; cited from earlier work"}, "[3]": {"test_system": "panel of PTPs (class I tyrosine-specific and dual-specific PTPs)", "conditions": "40 μM compound; no other PTP tested"}, "[4]": {"conditions": "0.03% in HFD chow, 10 min after IP insulin"}}, "data": [{"smiles": "Cc1ccccc1-c1nc2c(N)ncn(Cc3c(Cl)cccc3Cl)c-2n1", "note": "[5d]", "values": [{"measurement": "clearance at 24 h", "setting": "Mouse pharmacokinetics", "result": 69, "unit": "mL/min/kg"}, {"measurement": "mechanism of LMPTP inhibition", "setting": "human LMPTP-A [1]", "result": "uncompetitive"}, {"measurement": "potency at varying substrate concentrations", "setting": "human LMPTP-A [1]; 20 nM human LMPTP-A, increasing OMFP", "result": "enhanced potency in the presence of increasing substrate"}]}, {"smiles": "Nc1ncn(Cc2ccccc2)c2ncnc1-2", "note": "[6a]", "values": [{"measurement": "LMPTP potency, in words (Table 3 series)", "setting": "human LMPTP-A [2]", "result": "decreased potency"}]}, {"smiles": "Nc1ncn(Cc2ccccc2Cl)c2ncnc1-2", "note": "[6b]", "values": [{"measurement": "LMPTP potency, in words (Table 3 series)", "setting": "human LMPTP-A [2]", "result": "decreased potency"}]}, {"smiles": "Nc1ncn(Cc2ccc(Cl)cc2Cl)c2ncnc1-2", "note": "[6c]", "values": [{"measurement": "LMPTP potency, in words (Table 3 series)", "setting": "human LMPTP-A [2]", "result": "decreased potency"}]}, {"smiles": "Nc1ncn(Cc2cccc(Cl)c2)c2ncnc1-2", "note": "[6d]", "values": [{"measurement": "LMPTP potency, in words (Table 3 series)", "setting": "human LMPTP-A [2]", "result": "decreased potency"}]}, {"smiles": "Nc1ncn(Cc2ccc(Cl)cc2)c2ncnc1-2", "note": "[6e]", "values": [{"measurement": "LMPTP potency, in words (Table 3 series)", "setting": "human LMPTP-A [2]", "result": "decreased potency"}]}, {"smiles": "Cc1cccc(C)c1Cn1cnc(N)c2ncnc1-2", "note": "[6f]", "values": [{"measurement": "fold loss in potency (LMPTP)", "setting": "human LMPTP-A [2]; benzyl substituent off the 3-position, compared with 2,6-bisubstitution", "result": 10, "unit": "fold"}]}, {"smiles": "Nc1ncn(Cc2c(Cl)cncc2Cl)c2ncnc1-2", "note": "[6g]", "values": [{"measurement": "clearance at 24 h", "setting": "Mouse pharmacokinetics", "result": 18, "unit": "mL/min/kg"}, {"measurement": "HepG2 AKT Thr308 phosphorylation after insulin stimulation", "setting": "HepG2 hepatocytes", "result": "substantially increased"}, {"measurement": "glucose tolerance (IPGTT)", "setting": "diabetic DIO mice; 0.03% in HFD chow (roughly 30 mg/kg/day)", "result": "significantly improved"}, {"measurement": "fasting insulin levels", "setting": "diabetic DIO mice; 0.03% in HFD chow", "result": "decreased"}, {"measurement": "insulin-stimulated phosphorylation of the IR activation motif in liver", "setting": "diabetic DIO mice; [4]", "result": "increased"}, {"measurement": "phosphorylation of AKT Thr308 in liver", "setting": "diabetic DIO mice; [4]", "result": "increased"}, {"measurement": "mechanism of LMPTP inhibition", "setting": "human LMPTP-A [1]", "result": "uncompetitive"}]}, {"smiles": "Cc1ccccc1-c1nc2c(N)ncn(Cc3c(Cl)cncc3Cl)c-2n1", "note": "[6h]", "values": [{"measurement": "clearance at 24 h", "setting": "Mouse pharmacokinetics", "result": 103, "unit": "mL/min/kg"}, {"measurement": "LMPTP potency, in words (Table 3 series)", "setting": "human LMPTP-A [2]", "result": "additional boost in potency"}]}, {"smiles": "Clc1cccc(Cl)c1Cn1cnc(=NCc2ccco2)c2[nH]cnc21", "note": "[compound 2]", "values": [{"measurement": "selectivity for LMPTP over VHR", "setting": "VHR", "result": "high selectivity"}, {"measurement": "selectivity for LMPTP over LYP", "setting": "LYP", "result": "high selectivity"}]}, {"smiles": "Nc1ncn(Cc2c(Cl)cccc2Cl)c2ncnc1-2", "note": "[compound 3]", "values": [{"measurement": "clearance at 24 h", "setting": "Mouse pharmacokinetics", "result": 5.8, "unit": "mL/min/kg"}, {"measurement": "fold more potent than 2 (LMPTP)", "setting": "human LMPTP-A [2]; compared with 2", "result": "> 10", "unit": "fold"}, {"measurement": "inhibition of other PTPs of the panel", "setting": "[3]", "result": "< 50", "unit": "%"}]}]}
